In ChEMBL document CHEMBL4270599, “Synthesis of a 3'-C-ethynyl-β-d-ribofuranose purine nucleoside library: Discovery of C7-deazapurine analogs as potent antiproliferative nucleosides” (Eur J Med Chem, 2018):

How the values were obtained:
Type in all cases: functional
[1] = system: UACC-257; assay: Growth inhibition of human UACC257 cells assessed as cell growth at 10^-6 M incubated for 48 hrs by sulforhodamine B assay relative to control; settings: UACC-257, 48 h, read-out: Activity
[2] = system: LOX IMVI; assay: Growth inhibition of human LOXIMVI cells assessed as cell growth at 10^-7 M incubated for 48 hrs by sulforhodamine B assay relative to control; settings: read-out: Activity
[3] = system: Hs-578T; assay: Growth inhibition of human Hs 578T cells assessed as cell growth at 10^-7 M incubated for 48 hrs by sulforhodamine B assay relative to control; settings: read-out: Activity
[4] = system: TK-10; assay: Growth inhibition of human TK10 cells assessed as cell growth at 10^-6 M incubated for 48 hrs by sulforhodamine B assay relative to control; settings: TK-10, 48 h, read-out: Activity
[5] = system: UACC-257; assay: Cytotoxicity against human UACC257 cells after 48 hrs by SRB assay; settings: UACC-257, 48 h; for CC50: read-out: LC50 (the source's name)
[6] = system: 786-0; assay: Growth inhibition of human 786-0 cells assessed as cell growth at 10^-8 M incubated for 48 hrs by sulforhodamine B assay relative to control; settings: 786-0, 48 h, read-out: Activity
[7] = system: NCI/ADR-RES; assay: Growth inhibition of human NCI/ADR-RES cells assessed as cell growth at 10^-7 M incubated for 48 hrs by sulforhodamine B assay relative to control; settings: read-out: Activity
[8] = system: EKVX; assay: Growth inhibition of human EKVX cells assessed as cell growth at 10^-8 M incubated for 48 hrs by sulforhodamine B assay relative to control; settings: read-out: Activity
[9] = system: SF-268; assay: Growth inhibition of human SF268 cells assessed as cell growth at 10^-6 M incubated for 48 hrs by sulforhodamine B assay relative to control; settings: SF-268, 48 h, read-out: Activity
[10] = system: TK-10; assay: Growth inhibition of human TK10 cells assessed as cell growth at 10^-5 M incubated for 48 hrs by sulforhodamine B assay relative to control; settings: TK-10, 48 h, read-out: Activity
[11] = system: SN12C; assay: Growth inhibition of human SN12C cells assessed as cell growth at 10^-7 M incubated for 48 hrs by sulforhodamine B assay relative to control; settings: read-out: Activity
[12] = system: Hs-578T; assay: Growth inhibition of human Hs 578T cells assessed as cell growth at 10^-5 M incubated for 48 hrs by sulforhodamine B assay relative to control; settings: read-out: Activity
[13] = system: MCF7; assay: Growth inhibition of human MCF7 cells assessed as cell growth at 10^-8 M incubated for 48 hrs by sulforhodamine B assay relative to control; settings: MCF7, 48 h, read-out: Activity
[14] = system: U-251; assay: Growth inhibition of human U251 cells assessed as cell growth at 10^-8 M incubated for 48 hrs by sulforhodamine B assay relative to control; settings: U-251, 48 h, read-out: Activity
[15] = system: SF-295; assay: Cytotoxicity against human SF295 cells after 48 hrs by SRB assay; settings: SF-295, 48 h
[16] = system: MOLT-4; assay: Growth inhibition of human MOLT4 cells assessed as cell growth at 10^-8 M incubated for 48 hrs by sulforhodamine B assay relative to control; settings: MOLT-4, 48 h, read-out: Activity
[17] = system: PC-3; assay: Growth inhibition of human PC3 cells assessed as cell growth at 10^-5 M incubated for 48 hrs by sulforhodamine B assay relative to control; settings: PC-3, 48 h, read-out: Activity
[18] = system: HL-60(TB); assay: Growth inhibition of human HL-60(TB) cells assessed as cell growth at 10^-5 M incubated for 48 hrs by sulforhodamine B assay relative to control; settings: HL-60, 48 h, read-out: Activity
[19] = system: UACC-257; assay: Growth inhibition of human UACC257 cells assessed as cell growth at 10^-5 M incubated for 48 hrs by sulforhodamine B assay relative to control; settings: UACC-257, 48 h, read-out: Activity
[20] = system: HCT-116; assay: Growth inhibition of human HCT116 cells assessed as cell growth at 10^-5 M incubated for 48 hrs by sulforhodamine B assay relative to control; settings: HCT-116, 48 h, read-out: Activity
[21] = system: A549; assay: Growth inhibition of human A549/ATCC cells assessed as cell growth at 10^-7 M incubated for 48 hrs by sulforhodamine B assay relative to control; settings: A549, 48 h, read-out: Activity
[22] = system: MDA-MB-468; assay: Growth inhibition of human MDA-MB-468 cells assessed as cell growth at 10^-7 M incubated for 48 hrs by sulforhodamine B assay relative to control; settings: MDA-MB-468, 48 h, read-out: Activity
[23] = system: HCT-116; assay: Growth inhibition of human HCT116 cells assessed as cell growth at 10^-4 M incubated for 48 hrs by sulforhodamine B assay relative to control; settings: HCT-116, 48 h, read-out: Activity
[24] = system: NCI-H23; assay: Growth inhibition of human NCI-H23 cells assessed as cell growth at 10^-8 M incubated for 48 hrs by sulforhodamine B assay relative to control; settings: NCI-H23, 48 h, read-out: Activity
[25] = system: A549; assay: Growth inhibition of human A549/ATCC cells assessed as cell growth at 10^-4 M incubated for 48 hrs by sulforhodamine B assay relative to control; settings: A549, 48 h, read-out: Activity
[26] = system: U-251; assay: Growth inhibition of human U251 cells assessed as cell growth at 10^-7 M incubated for 48 hrs by sulforhodamine B assay relative to control; settings: U-251, 48 h, read-out: Activity
[27] = system: CCRF-CEM; assay: Growth inhibition of human CCRF-CEM cells assessed as cell growth at 10^-6 M incubated for 48 hrs by sulforhodamine B assay relative to control; settings: read-out: Activity
[28] = system: SF-295; assay: Growth inhibition of human SF295 cells assessed as cell growth at 10^-7 M incubated for 48 hrs by sulforhodamine B assay relative to control; settings: SF-295, 48 h, read-out: Activity
[29] = system: HCT-15; assay: Cytotoxicity against human HCT15 cells after 48 hrs by SRB assay; settings: HCT-15, 48 h
[30] = system: PC-3; assay: Cytotoxicity against human PC3 cells after 48 hrs by SRB assay; settings: PC-3, 48 h
[31] = system: SK-MEL-2; assay: Growth inhibition of human SK-MEL-2 cells assessed as cell growth at 10^-6 M incubated for 48 hrs by sulforhodamine B assay relative to control; settings: SK-MEL-2, 48 h, read-out: Activity
[32] = system: NCI-H23; assay: Growth inhibition of human NCI-H23 cells assessed as cell growth at 10^-5 M incubated for 48 hrs by sulforhodamine B assay relative to control; settings: NCI-H23, 48 h, read-out: Activity
[33] = system: U-251; assay: Growth inhibition of human U251 cells assessed as cell growth at 10^-6 M incubated for 48 hrs by sulforhodamine B assay relative to control; settings: U-251, 48 h, read-out: Activity
[34] = system: MCF7; assay: Growth inhibition of human MCF7 cells assessed as cell growth at 10^-5 M incubated for 48 hrs by sulforhodamine B assay relative to control; settings: MCF7, 48 h, read-out: Activity
[35] = system: HL-60(TB); assay: Growth inhibition of human HL-60(TB) cells assessed as cell growth at 10^-7 M incubated for 48 hrs by sulforhodamine B assay relative to control; settings: HL-60, 48 h, read-out: Activity
[36] = read-out: LC50 (the source's name)
[37] = read-out: pLC50 (the source's name) (converted)

C#C[C@@]1(O)[C@@H](CO)O[C@@H](n2cc(Br)c3c(N)ncnc32)[C@@H]1O
growth at 1 µM [1]: 60 to 73% | growth at 0.1 µM [2]: 20 to 52% | growth at 0.1 µM [3]: 92 to 97% | growth at 1 µM [4]: 17 to 27% | GI50 ([5]; read-out: GI50): 2.82 to 5.9 µM | CC50 [5]: > 100 µM | TGI ([5]; read-out: TGI): 49.2 to 77 µM | growth at 0.01 µM [6]: 86 to 91% | growth at 0.1 µM [7]: 34 to 41% | growth at 0.01 µM [8]: 85% | growth at 1 µM [9]: 34 to 36% | growth at 10 µM [10]: 12% | growth at 0.1 µM [11]: 31 to 69% | growth at 10 µM [12]: 3 to 9% | growth at 0.01 µM [13]: 60 to 74% | growth at 0.01 µM [14]: 57 to 87% | GI50 ([15]; read-out: GI50): 0.189 to 0.466 µM | CC50 [15, 36]: > 100 µM | TGI ([15]; read-out: TGI): 4.12 to 13.7 µM | growth at 0.01 µM [16]: 86 to 95% | growth at 10 µM [17]: 3% | growth at 10 µM [18]: -51% | growth at 10 µM [19]: 37 to 43% | growth at 10 µM [20]: 3 to 5% | growth at 0.1 µM [21]: 48 to 80% | growth at 0.1 µM [22]: 56 to 87% | growth at 100 µM [23]: 3 to 5% | growth at 0.01 µM [24]: 90 to 91% | growth at 100 µM [25]: 9 to 12% | growth at 0.1 µM [26]: 2 to 11% | growth at 1 µM [27]: 5 to 11% | growth at 0.1 µM [28]: 60 to 78% | GI50 ([29]; read-out: GI50): 0.172 to 0.707 µM | CC50 [29, 36]: > 100 µM | TGI ([29]; read-out: TGI): > 100 µM | TGI ([29]; read-out: pTGI (converted)): > 100 µM | GI50 ([30]; read-out: GI50): 0.0477 to 0.167 µM | TGI ([30]; read-out: TGI): 8.7 to 100 µM | CC50 [30, 37]: > 100 µM

C#C[C@@]1(O)[C@@H](CO)O[C@@H](n2cc(F)c3c(N)ncnc32)[C@@H]1O
growth at 1 µM [1]: 34% | growth at 0.1 µM [2]: 87% | growth at 1 µM [31]: 22% | growth at 0.1 µM [3]: 106% | growth at 1 µM [4]: 42% | growth at 10 µM [32]: -4% | CC50 [5]: > 100 µM | TGI ([5]; read-out: TGI): 4.64 µM | GI50 ([5]; read-out: pGI50 (converted)): 0.49 µM | TGI ([5]; read-out: pTGI (converted)): 4.68 µM | growth at 0.01 µM [6]: 94% | growth at 0.1 µM [7]: 76% | growth at 0.01 µM [8]: 94% | growth at 1 µM [33]: 38% | growth at 1 µM [9]: 42% | growth at 10 µM [10]: -9% | growth at 0.1 µM [11]: 80% | growth at 10 µM [12]: 18% | growth at 0.01 µM [13]: 89% | growth at 0.01 µM [14]: 97% | TGI ([15]; read-out: TGI): 2.33 µM | GI50 ([15]; read-out: pGI50 (converted)): 0.646 µM | CC50 [15, 37]: 6.76 µM | TGI ([15]; read-out: pTGI (converted)): 2.34 µM | growth at 0.01 µM [16]: 99% | growth at 10 µM [17]: -10% | growth at 10 µM [18]: -17% | growth at 10 µM [34]: 1% | growth at 10 µM [19]: -17% | growth at 10 µM [20]: -9% | growth at 0.1 µM [21]: 92% | growth at 0.1 µM [22]: 84% | growth at 100 µM [23]: 1% | growth at 0.01 µM [24]: 97% | growth at 0.1 µM [26]: 99% | growth at 1 µM [27]: 23% | growth at 0.1 µM [28]: 94% | TGI ([29]; read-out: TGI): 3.19 µM | GI50 ([29]; read-out: pGI50 (converted)): 0.295 µM | CC50 [29, 37]: > 100 µM | TGI ([29]; read-out: pTGI (converted)): 3.16 µM | CC50 [30, 36]: > 100 µM | TGI ([30]; read-out: TGI): 3.24 µM | GI50 ([30]; read-out: pGI50 (converted)): 0.295 µM | TGI ([30]; read-out: pTGI (converted)): 3.24 µM | growth at 0.1 µM [35]: 103%
